What was measured:
[1] = system: spinal cord contusion injury; assay: Mechanical sensitivity (von Frey, Up-Down), chronic central neuropathic pain three months after spinal cord contusion injury, treatment DPO 84-91; type: in vivo, rat; settings: DPO 28, before treatment (group baseline, stable up to DPO 84); 15 grams before injury; vehicle group 3.2
Experimental: Thirteen week-old female Lewis rats (Charles River, Sulzfeld Germany) were housed under a 12:12 h dark/light regime and allowed free access to water and food. After one week of habituation the animals underwent general anesthesia with a mixture of isoflurane and air (induction: 5% isoflurane, maintenance: 2.2% isofluorane). A Th10 laminectomy was performed without rupturing the dura and a severe contusive SCI (25 gem NYU/MASCIS II impactor) (Gruner, 1992 #3) was induced. After suturing muscle and skin, a subcutaneous (s.c.) injection of 5 ml of Ringers Lactate was given. Bladders were emptied manually 2 times a day until spontaneous voiding returned (usually within 1 week). The lesion severity was verified by the impact velocity and contusion depth of the impactor rod. Animals with an impact velocity error >5% were excluded from further analysis. After injury, individual rats were randomly assigned into a treatment group. The following groups were used: The mechanical sensitivity response was measured as the direct pressure stimulus required eliciting foot withdrawal in nonrestrained conditions. […] The 50% threshold force needed for paw withdrawal was calculated for both hind paws of each rat and the mean value of both hind paws was used to represent the mechanical sensitivity of this animal. […]

[2] = system: partial ligation of the sciatic nerve; assay: Mechanical sensitivity (von Frey, Up-Down) after partial ligation of the sciatic nerve; type: in vivo, rat; settings: DPO 21, after daily oral 10 mg/kg DPO 14 till DPO 21; 60 grams before injury, 19 grams at DPO 14 before treatment; FIG. 8
Experimental: The mechanical sensitivity response was measured as the direct pressure stimulus required eliciting foot withdrawal in nonrestained conditions. Animals were habituated to the testing apparatus for at least 20 min before testing. Each animal was subjected to the stimulation of a series of von Frey filaments ranging from 1.0 to 60 g using the Up-Down paradigm according to Chapter (Chaplan et al., 1994). The selected von Frey filament was pressed against the plantar surface of the hind paw to the point of 30° bending for 3 s. Paw withdrawal response was considered as the positive response. The 50% threshold force needed for paw withdrawal was calculated for both hind paws of each rat. The methods of Seltzer et al. (1990) were followed. The dorsum of the sciatic nerve was carefully freed from surrounding connective tissues at a site near the trochanter just distal to the point at which the posterior biceps semitendinosus nerve branches off the common sciatic nerve. The nerve was fixed in its place by pinching the epineurium on its dorsal aspect, taking care not to press the nerve against underlying structures. An 8-0 (Polyamide 6) suture was inserted into the nerve and tightly ligated so that the dorsal ⅓-½ of the nerve thickness was trapped in the ligature (Seltzer et al., 1990). […]

[3] = system: severe spinal cord contusion injury in the rat; assay: Mechanical sensitivity (von Frey, Up-Down) after severe spinal cord contusion injury, treatment DPO 28-35; type: in vivo; settings: for withdrawal threshold (50% threshold force): DPO 28, before start of treatment (group baseline), 15 grams before injury, vehicle group 2.7
Experimental: (§1) Thirteen week-old female Lewis rats (Charles River, Sulzfeld Germany) were housed under a 12:12 h dark/light regime and allowed free access to water and food. After one week of habituation the animals underwent general anesthesia with a mixture of isoflurane and air (induction: 5% isoflurane, maintenance: 2.2% isofluorane). A Th10 laminectomy was performed without rupturing the dura and a severe contusive SCI (25 gem NYU/MASCIS II impactor) (Gruner, 1992 #3) was induced. After suturing muscle and skin, a subcutaneous (s.c.) injection of 5 ml of Ringers Lactate was given. Bladders were emptied manually 2 times a day until spontaneous voiding returned (usually within 1 week). The lesion severity was verified by the impact velocity and contusion depth of the impactor rod. Animals with an impact velocity error >5% were excluded from further analysis. After injury, individual rats were randomly assigned into a treatment group. The following groups were used:
The mechanical sensitivity response was measured as the direct pressure stimulus required eliciting foot withdrawal in nonrestrained conditions. All tests were conducted in the morning between 7:30 and 10:30 am and the person performing the behavioral tests was blinded to the experimental groups. Animals were habituated to the testing apparatus for at least 20 min before testing. Each animal was subjected to the stimulation of a series of von Frey filaments ranging from 0.4 to 15 g (log force 3.61, 3.84, 4.08, 4.31, 4.56, 4.74, 4.93 and 5.18) using the Up-Down paradigm according to Chaplan (Chaplan et al., 1994). The selected von Frey filament was pressed against the plantar surface of the hind paw to the point of 30° bending for 3 s. Paw withdrawal response was considered as the positive response. The 50% threshold force needed for paw withdrawal was calculated for both hind paws of each rat and the mean value of both hind paws was used to represent the mechanical sensitivity of this animal.
(§2) Group 2: SCI+HR 325 (10 mg/kg/day) in vehicle by gavage for 7 days, from DPO 28 till DPO 35
(§3) Group 3: SCI+FK 778 (10 mg/kg/day) in vehicle by gavage for 7 day, from DPO 28 till DPO 35

[4] = system: severe spinal cord contusion injury in the rat; assay: Acetone test (cold chemical stimulus) after severe spinal cord contusion injury, treatment DPO 28-35; type: in vivo; settings: 10 mg/kg/day by gavage DPO 28 till DPO 35
Experimental: as §1, §2, §3
A slightly modified method of De la Calle and colleagues (De la Calle et al., 2002) was used for the determination of the reactivity to a cold chemical stimulus. The rat was placed in acrylic cages on top of a wire mesh grid, which allowed access to the paws, and acetone was applied to the plantar surface of the hind paw. To do this, 100 μl of acetone was sprayed onto the plantar surface of the rat's hind leg from below the grid with a syringe holding 2.5 ml. The time spent with the leg withdrawn from floor during the 60 s following exposure to acetone was recorded. Both hind legs were tested in each animal with an interval of 5-10 min between each test. The average reaction time between the two legs was taken for further analysis. A minimal value of 1 s was assigned to convey a fast or brisk reaction, while 0 was assigned if there was no reaction at all. This acetone test has been described as composing of cold, chemical, and possibly mechanical stimulation.

Row | Compound | withdrawal threshold (50% threshold force) [1] [grams] | withdrawal threshold in the ipsilateral paw [2] [grams] | withdrawal threshold (50% threshold force) [3] [grams] | reversal of mechanical allodynia after experimental spinal cord injury (conclusion) ([3]; 10 mg/kg/day by gavage DPO 28 till DPO 35) | withdrawal threshold vs vehicle control animals ([3]; DPO 35, 10 mg/kg/day by gavage DPO 28 till DPO 35, one-way ANOVA p<0.001, FIG. 2) | withdrawal threshold, difference to vehicle controls ([3]; end of experiment DPO 77, 10 mg/kg/day by gavage DPO 28 till DPO 35, p<0.001) | reversal of cold allodynia after experimental spinal cord injury (conclusion) [4] | duration of response to acetone exposure vs vehicle controls ([4]; DPO 35, one-way ANOVA p<0.01, FIG. 3) | duration of response to acetone exposure vs vehicle controls ([4]; DPO 56, ANOVA p<0.001, Bonferroni post-hoc) | duration of response to acetone exposure, differences to vehicle controls ([4]; end of experiment DPO 70, p<0.01)
1 | Cc1cc(NC(=O)/C(C#N)=C(\O)C2CC2)ccc1C(F)(F)F [HR-325, 1(3-methyl-4-trifluoromethylphenyl-carbamoyl)-2-cyclopropyl-2oxo-propionitrile] | 2.7 | 54 | 3.0 | – | – | – | – | – | – | –
2 | C#CCCC(O)=C(C#N)C(=O)Nc1ccc(C(F)(F)F)cc1 [FK-778, N-(4-trifluoromethyl)-phenyl-2-cyano-3-hydroxy-hept-2-en-6-in-carboxylic acidamide] | – | – | 3.1 | able to reverse mechanical allodynia | significantly higher | statistically significant difference between the treated animals and the vehicle controls remained | able to reverse cold allodynia | responded significantly shorter | responded significantly shorter | differences remained unchanged
